Source: PubChem BioAssay AID2060346 (Molecular Pharmacology Branch, DTP, NCI, 2025)
Activity calls are given as the source filed them. Rule for the calls: active = viability on the fitted dose curve at most 10% of control; inactive = the rest.

Test system: CN0375-F725-PDC multi-cell spheroids, viability
Experiment: Anticancer human tumor CN0375-F725-PDC patient-derived colon carcinoma cell line growth inhibition [TAK]
Details: for IC50: curve of first compound; for viability, T/C: stronger effect = lower value
From the text: Combinatorial screen of targeted agents with TAK-243 and ipatasertib in multi-cell type tumor spheroids
A high-throughput screen of multi-cell type tumor spheroids was designed to identify active combinations of targeted small molecules and TAK-243 or ipatasertib. Complex spheroids include a stromal component modeled by human endothelial cells (HUVEC) and fibroblasts modeled by human mesenchymal stem cells (MSCs). The concentration ranges selected for each drug and investigational agent were based upon clinically achievable concentrations if the clinical Cmax of the agent was known.
Compounds. The drugs and investigational agents: TAK-243 (785004), ipatasertib (767898), everolimus (733504), selumetinib (741078), bortezomib (756655), trametinib (758246), ixazomib (758254), vemurafenib (761431), dabrafenib (764134), sapanisertib (764658), alpelisib (765974), and copanlisib (816437), were obtained from the National Cancer Institute (NCI) Developmental Therapeutics Program Chemical Repository. The FDA-approved anticancer drug set is available from the NCI Developmental Therapeutics Program. […] The stock solutions were prepared in dimethyl sulfoxide (DMSO, Sigma-Aldrich, St. Louis, MO, cat. D2650) at 800-fold the tested concentration and stored at -70 degrees C prior to their use. All drugs and investigational agents were tested over a range starting from a high concentration at or near the clinical Cmax and decreasing in half-log increments. If the clinical Cmax for an agent had not been determined, the highest concentration tested was 10 microM.
NCI60 Cell Culture. NCI60 cell lines were obtained from the NCI Developmental Therapeutics Program Tumor Repository. For each lot of cells, the Repository performed Applied Biosystems AmpFLSTR Identifiler testing with PCR amplification to confirm consistency with the published Identifier STR profile for each cell line. Cells were kept in continuous culture for no more than 20 passages. The optimal seeding densities for each of the cell lines at each time point assessed were determined prior to performing the concentration response studies. Briefly, the NCI60 human tumor lines were grown as monolayers in RPMI 1640 medium supplemented with 10% FBS and 2 mmol/L L-glutamine.
An additional 2 lines were from the NCI60 cell line panel including melanomas, MALME-3M and SK-MEL-2. Pooled donor human umbilical vein endothelial cells (HUVEC, Lonza, cat. CC-2519) and human mesenchymal stem cells (hMSC, Lonza, cat. PT-2501) were purchased from Lonza (Walkersville, MD).
PDMR cell lines were grown in complete medium (DC medium): Dulbecco's modified Eagle's medium (DMEM)/F12 supplemented with 5% fetal bovine serum (FBS), 2 mM L-glutamine, 100 U/mL penicillin and 100 µg/ml streptomycin, 0.4 µg/ml hydrocortisone, 10 ng/ml epidermal growth factor (EGF) recombinant human protein, 24 µg/mL adenine, and 0.1 mg/mL primocin. During culture from frozen stock vials, PDMR cells were cultured in the same medium containing 10 µM Y-27632 (see Table 3). The PDCs were cultured in complete DMEM/F12 media without 10 microM Y-27632 dihydrochloride for at least two passages prior to the screen. The pooled donor HUVEC and hMSC were cultured in endothelial cell growth medium 2 (PromoCell, Heidelberg, Germany, cat. C-22011) and mesenchymal stem cell growth medium 2 (PromoCell, cat. C-28009), respectively. For all experiments, HUVEC and hMSC were used at passages </=5.
For the pre-screen, cell seeding densities were determined from a titration spanning the range from 5,000 to 313 cells per well. The mct-spheroids including 60% malignant cells, 25% HUVEC and 15% MSC dispensed as a mixture into U-bottom Ultra-Low Attachment 384-well plates (Corning, NY)
High-throughput Drug Combination Screening.
Prior to their inoculation into 384-well plates, malignant cells, HUVEC, and hMSC were removed from T flasks using TrypLE express (Thermo Fisher Scientific, cat. 12605036) and harvested by centrifugation for 5 min at 233 x g. […]
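Throughout, for IC50: spheroids exposed to drugs for seven days.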
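Throughout, for viability, T/C: spheroids exposed to drugs for seven days.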

## CC(=O)Nc1cccc(-n2c(=O)n(C3CC3)c(=O)c3c(Nc4ccc(I)cc4F)n(C)c(=O)c(C)c32)c1 + CC(C)NCC(C(=O)N1CCN(c2ncnc3c2C(C)CC3O)CC1)c1ccc(Cl)cc1
Second compound 0.3 µM
  IC50: 9.39 nM
Second compound 0.949 µM
  IC50: 5.66 nM
Second compound 3 µM
  IC50: 5.23 nM
Second compound 9.49 µM
  IC50: 4.87 nM
Second compound 30 µM
  IC50: 1.23 nM
Second compound 0.3 µM, first compound 94.9 pM
  viability, T/C: 99.7%
Second compound 0.3 µM, first compound 0.0003 µM
  viability, T/C: 93%
Second compound 0.3 µM, first compound 0.000949 µM
  viability, T/C: 74.4%
Second compound 0.3 µM, first compound 0.003 µM
  viability, T/C: 68.9%
Second compound 0.3 µM, first compound 0.00949 µM
  viability, T/C: 48.6%
Second compound 0.3 µM, first compound 0.03 µM
  viability, T/C: 33.7%
Second compound 0.949 µM, first compound 94.9 pM
  viability, T/C: 92.4%
Second compound 0.949 µM, first compound 0.0003 µM
  viability, T/C: 86.3%
Second compound 0.949 µM, first compound 0.000949 µM
  viability, T/C: 75.5%
Second compound 0.949 µM, first compound 0.003 µM
  viability, T/C: 57.1%
Second compound 0.949 µM, first compound 0.00949 µM
  viability, T/C: 44.3%
Second compound 0.949 µM, first compound 0.03 µM
  viability, T/C: 31.5%
Second compound 3 µM, first compound 94.9 pM
  viability, T/C: 88.1%
Second compound 3 µM, first compound 0.0003 µM
  viability, T/C: 83.5%
Second compound 3 µM, first compound 0.000949 µM
  viability, T/C: 70%
Second compound 3 µM, first compound 0.003 µM
  viability, T/C: 56.3%
Second compound 3 µM, first compound 0.00949 µM
  viability, T/C: 43.6%
Second compound 3 µM, first compound 0.03 µM
  viability, T/C: 30.1%
Second compound 9.49 µM, first compound 94.9 pM
  viability, T/C: 81.4%
Second compound 9.49 µM, first compound 0.0003 µM
  viability, T/C: 82.7%
Second compound 9.49 µM, first compound 0.000949 µM
  viability, T/C: 69.9%
Second compound 9.49 µM, first compound 0.003 µM
  viability, T/C: 57.4%
Second compound 9.49 µM, first compound 0.00949 µM
  viability, T/C: 40.3%
Second compound 9.49 µM, first compound 0.03 µM
  viability, T/C: 26.1%
Second compound 30 µM, first compound 94.9 pM
  viability, T/C: 70%
Second compound 30 µM, first compound 0.0003 µM
  viability, T/C: 67.5%
Second compound 30 µM, first compound 0.000949 µM
  viability, T/C: 53%
Second compound 30 µM, first compound 0.003 µM
  viability, T/C: 36.1%
Second compound 30 µM, first compound 0.00949 µM
  viability, T/C: 24.1%
Second compound 30 µM, first compound 0.03 µM
  viability, T/C: 13.6%

## CC(C)CC(NC(=O)C(Cc1ccccc1)NC(=O)c1cnccn1)B(O)O (stereo not given) + CC(C)NCC(C(=O)N1CCN(c2ncnc3c2C(C)CC3O)CC1)c1ccc(Cl)cc1
Second compound 0.3 µM
  IC50: 7.39 nM
Second compound 0.949 µM
  IC50: 7.9 nM
Second compound 3 µM
  IC50: 7.86 nM
Second compound 9.49 µM
  IC50: 5.85 nM
Second compound 30 µM
  IC50: 2.49 nM
Second compound 0.3 µM, first compound 31.6 pM
  viability, T/C: 100%
Second compound 0.3 µM, first compound 0.0001 µM
  viability, T/C: 99%
Second compound 0.3 µM, first compound 0.000316 µM
  viability, T/C: 93.6%
Second compound 0.3 µM, first compound 0.001 µM
  viability, T/C: 99.5%
Second compound 0.3 µM, first compound 0.00316 µM
  viability, T/C: 92.1%
Second compound 0.3 µM, first compound 0.01 µM
  viability, T/C: 34.9%
Second compound 0.949 µM, first compound 31.6 pM
  viability, T/C: 99.6%
Second compound 0.949 µM, first compound 0.0001 µM
  viability, T/C: 101%
Second compound 0.949 µM, first compound 0.000316 µM
  outcome: inactive
Second compound 0.949 µM, first compound 0.001 µM
  viability, T/C: 90.3%
Second compound 0.949 µM, first compound 0.00316 µM
  viability, T/C: 93%
Second compound 0.949 µM, first compound 0.01 µM
  viability, T/C: 38.8%
Second compound 3 µM, first compound 31.6 pM
  viability, T/C: 89.3%
Second compound 3 µM, first compound 0.0001 µM
  viability, T/C: 93%
Second compound 3 µM, first compound 0.000316 µM
  viability, T/C: 91.8%
Second compound 3 µM, first compound 0.001 µM
  viability, T/C: 93.1%
Second compound 3 µM, first compound 0.00316 µM
  viability, T/C: 82.8%
Second compound 3 µM, first compound 0.01 µM
  viability, T/C: 41.2%
Second compound 9.49 µM, first compound 31.6 pM
  viability, T/C: 85.2%
Second compound 9.49 µM, first compound 0.0001 µM
  viability, T/C: 95.3%
Second compound 9.49 µM, first compound 0.000316 µM
  viability, T/C: 87.2%
Second compound 9.49 µM, first compound 0.001 µM
  viability, T/C: 93.6%
Second compound 9.49 µM, first compound 0.00316 µM
  viability, T/C: 76.7%
Second compound 9.49 µM, first compound 0.01 µM
  viability, T/C: 26.6%
Second compound 30 µM, first compound 31.6 pM
  viability, T/C: 72.3%
Second compound 30 µM, first compound 0.0001 µM
  viability, T/C: 86.8%
Second compound 30 µM, first compound 0.000316 µM
  viability, T/C: 84.4%
Second compound 30 µM, first compound 0.001 µM
  viability, T/C: 76.6%
Second compound 30 µM, first compound 0.00316 µM
  viability, T/C: 42.9%
Second compound 30 µM, first compound 0.01 µM
  viability, T/C: 9.84%
